The structures appear in SMILES notation.

Data set [1] in a line: Hydrolysis of PCS stripped with chelator. Format: biochemical. The following applies: PCS (43 g per liter) stripped overnight with 10 mM chelator, then washed. How it is done:
To test whether there was any significant amount of (accessible) Fe(II) in PCS, and whether stripping it with a chelator would improve PCS hydrolysis, washed PCS (43 g per liter) was “stripped” with 10 mM 2,2′-bipyridyl, 1,10-phenanthroline, or 1,7-phenanthroline. After overnight pre-incubation, the PCS was extensively washed to remove the chelator. The hydrolysis was performed in a series of duplicate “mini-scale” hydrolysis reactions performed according to the procedure described in Example 30.

Data set [2] relates to Cellulolytic Enzyme Composition #1. As to the kind of experiment: mini-scale AVICEL hydrolysis by Cellulolytic Enzyme Composition #1. The following applies: 3 mM; 23 g AVICEL and 0.25 g enzyme per liter. Format: biochemical, Trichoderma reesei. How it is done:
FIGS. 19A, 19B, 19C, and 19D show the effective inhibitory concentration range of Fe(II) on the hydrolysis of AVICEL® by Cellulolytic Enzyme Composition #1 (A and B) and on the hydrolysis of PASC by Cellulolytic Enzyme Composition #1 (C and D). The AVICEL® hydrolysis was conducted with […] of AVICEL® and 0.25 g of Cellulolytic Enzyme Composition #1 per liter of 50 mM sodium acetate pH 5 at 50° C. FeSO4 (mM): (∘) 0, (+) 1, (Δ) 3, (⋄) 5, (□) 10. Dixon plot linear regression line: 1/Rate=(0.035±0.003)[Fe(II)]+(0.043±0.015), r^2=0.978. Rate was estimated from the hydrolysis difference (%) at 24 and 6 hours. The PASC hydrolysis was conducted with 2 g of PASC and 50 mg of Cellulolytic Enzyme Composition #1 per liter of 50 mM sodium acetate pH 5 at 50° C. Dixon plot linear regression line: 1/Rate=(0.0042±0.0003)[Fe(II)]+(0.059±0.002), r^2=0.994. Rates were estimated from the hydrolysis difference (%) at 7 hours.
(§1) The effect of various salts (FeSO4, FeCl2, NaCl, Na2SO4, MnSO4, MnCl2) was determined in the hydrolysis of PCS by Cellulolytic Enzyme Composition #2. The PCS hydrolysis was performed in duplicate in capped 1.7 ml EPPENDORF® tubes (“mini-scale”) containing 1 ml suspensions of 43.4 g of PCS (dry weight) per liter, 10 mM salts in 50 mM sodium acetate pH 5. Cellulolytic Enzyme Composition #2 was added at 0.25 g per liter. Reactions without the addition of the salt served as controls. The capped tubes were incubated at 50° C. in an INNOVA® 4080 incubator shaker (New Brunswick Scientific Co., Inc., Edison, N.J., USA) at 150 rpm.
In one series of “mini-scale” hydrolysis reactions performed according to the procedure described in Example 30, the effect of 1 mM to 10 mM FeSO4 was evaluated in the hydrolysis of AVICEL® by Cellulolytic Enzyme Composition #1.

For data set [3] the test system is unchanged. Description: mini-scale PCS hydrolysis by Cellulolytic Enzyme Composition #1. The following applies: PCS hydrolysis (FIGS. 23A-23D). Format: biochemical, Trichoderma reesei. As to the method:
as §1
(§2) Aliquots of the suspensions, sampled over time, were filtered by centrifugation using a 0.45 μm MULTISCREEN® HV membrane (Millipore, Billerica, Mass., USA) at 2000 rpm for 15 minutes using a SORVALL® RT7 centrifuge (Thermo Fisher Scientific, Waltham, Mass., USA). When not used immediately, the filtered sugary aliquots were frozen at −20° C. Sugar concentrations of the samples diluted in 0.005 M H2SO4 were measured after elution from a 4.6×250 mm AMINEX® HPX-87H column (Bio-Rad, Hercules, Calif., USA) by 0.005 M H2SO4 at a flow rate of 0.4 ml/minute at 65° C. with quantitation by integration of glucose and cellobiose using refractive index detection (CHEMSTATION®, AGILENT® 1100 HPLC, Agilent Technologies, Santa Clara, Calif., USA) calibrated with standards of glucose and cellobiose. The resultant equivalents were used to calculate the percentage of cellulose conversion for each reaction.
Example 30 was repeated with both Cellulolytic Enzyme Composition #1 and Cellulolytic Enzyme Composition #2. Soluble reducing sugars were measured by HPLC as described in Example 30. Reactions without the addition of FeSO4 served as controls.
The hydrolysis was performed in a series of duplicate “mini-scale” hydrolysis reactions according to the procedure described in Example 30.

Data set [4] addresses Cellulolytic Enzyme Composition #1. As to the kind of experiment: mini-plate-scale PASC hydrolysis by Cellulolytic Enzyme Composition #1. Format: biochemical, Trichoderma reesei. The following applies: PASC; Enzymes: Cellulolytic Enzyme Composition #1; read-out: I50 (mean ± SD). How it is done:
(§3) Various (biologically common) divalent metal cations with variable ionic radii were tested in 2.8 ml Deep Well Microplates (VWR International, West Chester, Pa., USA) (“mini-plate-scale”) containing 1 ml suspensions of 25 g of AVICEL® per liter in 50 mM sodium acetate pH 5 at 50° C. Cellulolytic Enzyme Composition #1 was added at 0.25 g per liter for each hydrolysis. The mini-plates were sealed at 160° C. for 2 seconds using an ABGENE® ALPS 300™ sealer (ABgene, Rochester, N.Y., USA). The sealed mini-plates were incubated at 50° C. in an INNOVA® 4080 incubator shaker at 150 rpm. Soluble reducing sugars were measured by HPLC as described in Example 30.
In one series of “mini-scale” hydrolysis reactions performed according to the procedure described in Example 30, the effect of 1 mM to 10 mM FeSO4 was evaluated in the hydrolysis of AVICEL® by Cellulolytic Enzyme Composition #1. In a series of “mini-plate-scale” hydrolysis reactions performed according to the procedure described in Example 32, the effect of 1 mM to 10 mM FeSO4 was evaluated in the hydrolysis of PASC by Cellulolytic Enzyme Composition #1, except 2 g of PASC and 0.05 g Cellulolytic Enzyme Composition #1 per liter of 50 mM sodium acetate pH 5 were used.
The above study was extended to a range of concentration of Fe(II) and cellulose. In a series of “mini-plate-scale” hydrolysis reactions performed according to the procedure described in Example 32, except that 0.1 to 10 mM FeSO4, 0.6 to 4 g of PASC and 0.01 g of Cellulolytic Enzyme Composition #1 per liter of 50 mM sodium acetate pH 5 were used.

Data set [5] deals with T1, Trichoderma reesei Cel7B endoglucanase I (Trichoderma reesei, UniProt P07981).
T1 construct: made in house; host or cells: Aspergillus oryzae JaL250
Description: PASC hydrolysis by Cel7B endoglucanase I. Format: biochemical.

For data set [6], the target named is T2, Trichoderma reesei Cel5A endoglucanase II (Trichoderma reesei, UniProt P07982).
T2 construct: made in house; host or cells: Aspergillus oryzae JaL250 (transformant JaL250AlLo27)
As to the kind of experiment: PASC hydrolysis by Cel5A endoglucanase II. Format: biochemical.

Data set [7] has as its system Cellulolytic Enzyme Composition #2. As to the kind of experiment: mini-scale PCS hydrolysis by Cellulolytic Enzyme Composition #2. Format: biochemical, Trichoderma reesei. The following applies: 10 mM Fe(II) (FIG. 17B). As to the method: Corn stover was pretreated at the U.S. Department of Energy National Renewable Energy Laboratory (NREL), […], Colo., USA, using dilute sulfuric acid. The following conditions were used for the pretreatment: 1.4 wt % sulfuric acid at 195° C. for 4.5 minutes. According to limit digestion with excess cellulase enzymes, the water-insoluble solids in the pretreated corn stover (PCS) contained 59.5% cellulose. Prior to use, the PCS was washed with a large volume of deionized water until soluble acid and sugars were removed. The dry weight of the water-washed PCS was 19.16%.
The effect of various salts (FeSO4, FeCl2, NaCl, Na2SO4, MnSO4, MnCl2) was determined in the hydrolysis of PCS by Cellulolytic Enzyme Composition #2. […] Cellulolytic Enzyme Composition #2 was added at 0.25 g per liter. Reactions without the addition of the salt served as controls. The capped tubes were incubated at 50° C. in an INNOVA® 4080 incubator shaker (New Brunswick Scientific Co., Inc., Edison, N.J., USA) at 150 rpm.
as §2
The degree of cellulose conversion to glucose plus cellobiose (% conversion) was calculated using the following equation:
% Conversion=(glucose+cellobiose×1.053)(mg/ml)×100×162/cellulose(mg/ml)×180)=(glucose+cellobiose×1.053)(mg/ml)×100/(cellulose(mg/ml)×1.111)
In this equation the factor 1.111 reflects the weight gain in converting cellulose to glucose, and the factor 1.053 reflects the weight gain in converting cellobiose to glucose. Cellulose in PCS was determined by a limit digest of PCS to release glucose and cellobiose.

The subject of data set [8] is Cellulolytic Enzyme Composition #1. As to the kind of experiment: mini-plate-scale AVICEL hydrolysis by Cellulolytic Enzyme Composition #1. Format: biochemical, Trichoderma reesei. How it is done: as §3
Iron-chelator complexes of variable size or redox property were tested for their ability to inhibit enzymatic hydrolysis of cellulose. […]

For data set [9] the following is noted: ionic radii in crystals, 6-ligand coordination; cited from earlier work.
The target of data set [10] is T3, Trichoderma reesei Cel7A cellobiohydrolase I (Trichoderma reesei, UniProt P62694).
T3 construct: made in house
Description: PASC hydrolysis by Cel7A cellobiohydrolase I. The format is biochemical.

The target in data set [11] is T4, Aspergillus oryzae CEL3A beta-glucosidase (Aspergillus oryzae, UniProt Q2UUD6).
T4 construct: made in house
Description: Cellobiose hydrolysis by CEL3A beta-glucosidase. Format: biochemical. As to the method:
The Fe(II) inhibition of Aspergillus oryzae CEL3A beta-glucosidase was measured similarly, except cellobiose replaced PASC. The initial rate vs Fe(II) concentration plots appeared as “mixed” type, whose complexity prevented extraction of Kis.

[12] abbreviates: 0-15 mM FeSO4, 0.6-4 g PASC per liter.

T2 sequence (P07982 22-418): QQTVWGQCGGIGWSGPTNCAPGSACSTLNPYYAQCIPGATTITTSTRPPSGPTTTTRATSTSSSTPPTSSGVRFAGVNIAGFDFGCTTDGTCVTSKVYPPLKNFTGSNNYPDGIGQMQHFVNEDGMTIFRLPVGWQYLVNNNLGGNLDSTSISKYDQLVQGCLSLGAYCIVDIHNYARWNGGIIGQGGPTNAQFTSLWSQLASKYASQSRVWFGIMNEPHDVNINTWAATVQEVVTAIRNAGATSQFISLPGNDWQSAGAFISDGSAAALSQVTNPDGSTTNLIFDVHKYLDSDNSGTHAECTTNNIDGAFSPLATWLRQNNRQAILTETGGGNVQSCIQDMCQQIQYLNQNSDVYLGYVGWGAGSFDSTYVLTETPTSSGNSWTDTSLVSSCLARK
T1 sequence (P07981 23-459): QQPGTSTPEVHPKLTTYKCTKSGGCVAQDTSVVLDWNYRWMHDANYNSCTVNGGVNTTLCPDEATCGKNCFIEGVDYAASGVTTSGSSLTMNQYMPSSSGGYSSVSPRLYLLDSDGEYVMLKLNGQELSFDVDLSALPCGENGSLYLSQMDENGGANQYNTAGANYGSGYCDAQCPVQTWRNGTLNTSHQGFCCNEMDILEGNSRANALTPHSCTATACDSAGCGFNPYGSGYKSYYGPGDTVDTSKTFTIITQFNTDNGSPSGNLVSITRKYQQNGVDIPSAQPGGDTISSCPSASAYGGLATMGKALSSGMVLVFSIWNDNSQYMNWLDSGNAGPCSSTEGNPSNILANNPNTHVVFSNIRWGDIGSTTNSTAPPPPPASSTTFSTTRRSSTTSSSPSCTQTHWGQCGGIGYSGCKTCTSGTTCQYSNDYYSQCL
T3 sequence (P62694 18-513): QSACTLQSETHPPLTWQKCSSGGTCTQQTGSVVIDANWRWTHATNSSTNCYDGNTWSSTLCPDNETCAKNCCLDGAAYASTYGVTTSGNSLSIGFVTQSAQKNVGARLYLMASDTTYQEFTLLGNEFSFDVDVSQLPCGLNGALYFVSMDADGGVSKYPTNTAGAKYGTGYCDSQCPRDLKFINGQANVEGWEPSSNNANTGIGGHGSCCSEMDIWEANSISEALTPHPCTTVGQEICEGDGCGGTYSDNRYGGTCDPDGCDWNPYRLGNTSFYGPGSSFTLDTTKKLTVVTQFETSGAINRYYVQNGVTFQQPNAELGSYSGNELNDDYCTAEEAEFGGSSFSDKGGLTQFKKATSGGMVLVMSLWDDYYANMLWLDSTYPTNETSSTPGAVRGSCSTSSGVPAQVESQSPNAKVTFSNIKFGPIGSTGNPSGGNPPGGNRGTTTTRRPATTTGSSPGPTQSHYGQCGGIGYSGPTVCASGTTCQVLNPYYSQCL
T4 sequence (Q2UUD6 20-861): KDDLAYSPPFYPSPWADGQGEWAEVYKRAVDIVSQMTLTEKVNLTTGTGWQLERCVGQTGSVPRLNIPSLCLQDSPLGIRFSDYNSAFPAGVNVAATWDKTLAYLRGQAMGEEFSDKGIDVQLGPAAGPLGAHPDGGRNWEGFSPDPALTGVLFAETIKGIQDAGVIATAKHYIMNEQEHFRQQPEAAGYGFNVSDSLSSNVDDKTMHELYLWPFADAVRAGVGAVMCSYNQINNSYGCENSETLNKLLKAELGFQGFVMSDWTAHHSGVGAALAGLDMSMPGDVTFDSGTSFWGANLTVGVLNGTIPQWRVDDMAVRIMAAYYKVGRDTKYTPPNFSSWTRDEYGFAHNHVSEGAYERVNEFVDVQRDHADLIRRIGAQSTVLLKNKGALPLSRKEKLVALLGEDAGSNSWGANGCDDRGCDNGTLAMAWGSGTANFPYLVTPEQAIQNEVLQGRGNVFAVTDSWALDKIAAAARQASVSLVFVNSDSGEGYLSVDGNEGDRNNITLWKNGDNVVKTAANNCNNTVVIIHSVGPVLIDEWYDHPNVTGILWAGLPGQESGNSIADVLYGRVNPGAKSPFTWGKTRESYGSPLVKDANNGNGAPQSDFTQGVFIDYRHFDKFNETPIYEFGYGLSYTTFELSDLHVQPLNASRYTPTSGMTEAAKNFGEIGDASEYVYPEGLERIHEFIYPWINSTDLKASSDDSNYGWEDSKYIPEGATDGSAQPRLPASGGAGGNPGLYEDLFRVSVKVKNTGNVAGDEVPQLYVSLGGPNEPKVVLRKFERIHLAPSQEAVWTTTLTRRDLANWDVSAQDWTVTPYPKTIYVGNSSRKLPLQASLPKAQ

For the compound `c1ccc(-c2ccccn2)nc1` [2,2′-bipyridyl], the “increase in hydrolysis extent” value in [1] was “approximately 4%”. Further, in data set [2], the “Effect on AVICEL hydrolysis” value is recorded as “No significant inhibition”. In [3], the “Effect of chelator on enzyme in the absence of FeSO4” value is “significant inhibition”.
Take `[Fe+2]` [Fe(II)]: the IC50 in data set [4] was determined as 14 ± 1 mM; in data set [5] (PASC, CEL7B EGI, 40 mg enzyme per liter, read-out: I50 (mean ± SD)), 1.8 ± 0.2 mM; in data set [6] (PASC, CEL5A EGII, 40 mg enzyme per liter, read-out: I50 (mean ± SD)) it was 12 ± 4 mM; in [8] (Avicel, Enzymes: Cellulolytic Enzyme Composition #1, read-out: I50 (mean ± SD)), 2 ± 1 mM; in [10] (PASC, CEL7A CBHI, 40 mg enzyme per liter, read-out: I50 (mean ± SD)), 7 ± 2 mM; in data set [11] (CEL3A BG, on cellobiose hydrolysis, read-out: I50 (mean ± SD)), 13 ± 2 mM. The “Type of initial rate vs Fe(II) concentration plots” value in data set [5] (setting [12]) is reported as “mixed”; in [6] (setting [12]), “mixed”; in data set [10] (setting [12]), “mixed”; in data set [11] (0-15 mM FeSO4, cellobiose replaced PASC), “mixed”. For the same compound, the activity loss result in data set [7] is recorded as “approximately 70%”. Besides, the “Effect on enzymatic cellulolysis: loss in initial rate” value in data set [8] (10 mM, 25 g AVICEL and 0.25 g enzyme per liter, pH 5, 50° C.) was ~70% loss in initial rate, ~70% loss in extended hydrolysis extent. The “Effect on enzymatic cellulolysis: loss in extended hydrolysis extent” value in data set [8] (10 mM, 25 g AVICEL and 0.25 g enzyme per liter, pH 5, 50° C., after 4 days) is given as ~70% loss in initial rate, ~70% loss in extended hydrolysis extent. For the same compound, the Radius in [9] is 0.61 Å.

Values taken from patent publication US20090130707A1, “Methods of reducing the inhibitory effect of a redox active metal ion on the enzymatic hydrolysis of cellulosic material” (priority 2007, published 2009).
